From patent US10081635B2, “Substituted N-(pyrrolidine-3-yl)-7H-pyrrolo[2,3-D]pyrimidine-4-amine as janus kinase inhibitor” (YANG JI CHEMICAL CO., LTD., priority 2014, dated 2018)

Key:
Assay type in all cases: biochemical
Human JAK2 = Human JAK2 (Homo sapiens (Human), UniProt O60674); test: In vitro kinase inhibition test, JAK2 (33P-ATP filter scintillation); details: compound at 1 uM; read-out: JAK2 kinase-phosphorylation inhibitory level (% inhibition)
Protocol: (§1) 1. In Vitro Kinase Inhibition Test
(§2) Kinases used were human-derived JAK1, JAK2, JAK3, and TYK2 (Millipore, Germany). Each of these kinases was diluted with a suitable buffer solution as described below, and then mixed with reagents.
(§3) 3-morpholinopropane-1-sulfonic acid (MOPS) and EDTA were dissolved in distilled water at a concentration of 20 mM and 1 mM, respectively, and 100 uL of β-mercaptoethanol, 10 uL of Brij-35™, 5 mL of glycerol, and 100 mg of bovine serum albumin (BSA), each per 100 mL of the solution, were added to the solution, thereby preparing a JAK2, JAK3, and TYK2 dilution buffer solution.
(§4) Each compound was dissolved in a 100% DMSO solution at a 50 uM concentration. This solution was reacted with reagents in wells on a 96-well plate to reach a final concentration of 1 uM. Detailed experimental methods for each kinase are described below.
(§5) After reaction for about 40 minutes at room temperature, the reaction was stopped by adding 5 uL of a 3% (v/v) phosphoric acid solution.
(§6) In Tables 5 and 6, the numbers in the “Example” column, which are identification numbers of the examples, indicate the compounds synthesized in the corresponding examples, the values in the “JAK1”, “JAK2”, “JAK3”, and “TYK2” columns represent kinase-phosphorylation inhibitory levels as a percentage (%) of the compounds synthesized in the corresponding examples at a 1 uM concentration. In Tables 5 and 6, negative values substantially indicate no inhibitory effect.
(§7) The inhibitory levels (% inhibition) represent a percentage of reduction in phosphorylation activity in each test group with respect to the phosphorylation activity of a corresponding kinase in a negative control group lacking any of the compounds synthesized in the examples. % inhibition=[(Scintillation value of Test compound non-treatment group−Scintillation value of Test compound treatment group)/(Scintillation value of Test compound non-treatment group)]×100

Human JAK1 = Human JAK1 (Homo sapiens (Human), UniProt P23458); test: In vitro kinase inhibition test, JAK1 (33P-ATP filter scintillation); details: compound at 1 uM; read-out: JAK1 kinase-phosphorylation inhibitory level (% inhibition)
Protocol: as §1, §2
Tris(hydroxymethyl)aminomethane (TRIS) and ethylenediaminetetraacetic acid (EDTA) were dissolved in distilled water at a concentration of 20 mM and 0.2 mM, respectively, and 100 uL of β-mercaptoethanol, 10 uL of Brij-35™, and 5 mL of glycerol, each per 100 mL of the solution, were added to the solution, thereby preparing a JAK1 dilution buffer solution.
as §4
After reaction for about 40 minutes at room temperature, the reaction was stopped by adding 5 uL of a 3% (v/v) phosphoric acid solution. […] The methanol drying is a drying process using an azeotropic effect, wherein methanol is added into an aqueous solution for drying.
as §6, §7

Human TYK2 = Human TYK2 (Homo sapiens (Human), UniProt P29597); test: In vitro kinase inhibition test, TYK2 (33P-ATP filter scintillation); details: compound at 1 uM; read-out: TYK2 kinase-phosphorylation inhibitory level (% inhibition)
Protocol: as §1, §2, §3, §4, §5, §6, §7

Human JAK3 = Human JAK3 (Homo sapiens (Human), UniProt P52333); test: In vitro kinase inhibition test, JAK3 (33P-ATP filter scintillation); details: compound at 1 uM; read-out: JAK3 kinase-phosphorylation inhibitory level (% inhibition)
Protocol: as §1, §2, §3, §4, §5, §6, §7

Human JAK3, sequence (P52333 whole entry): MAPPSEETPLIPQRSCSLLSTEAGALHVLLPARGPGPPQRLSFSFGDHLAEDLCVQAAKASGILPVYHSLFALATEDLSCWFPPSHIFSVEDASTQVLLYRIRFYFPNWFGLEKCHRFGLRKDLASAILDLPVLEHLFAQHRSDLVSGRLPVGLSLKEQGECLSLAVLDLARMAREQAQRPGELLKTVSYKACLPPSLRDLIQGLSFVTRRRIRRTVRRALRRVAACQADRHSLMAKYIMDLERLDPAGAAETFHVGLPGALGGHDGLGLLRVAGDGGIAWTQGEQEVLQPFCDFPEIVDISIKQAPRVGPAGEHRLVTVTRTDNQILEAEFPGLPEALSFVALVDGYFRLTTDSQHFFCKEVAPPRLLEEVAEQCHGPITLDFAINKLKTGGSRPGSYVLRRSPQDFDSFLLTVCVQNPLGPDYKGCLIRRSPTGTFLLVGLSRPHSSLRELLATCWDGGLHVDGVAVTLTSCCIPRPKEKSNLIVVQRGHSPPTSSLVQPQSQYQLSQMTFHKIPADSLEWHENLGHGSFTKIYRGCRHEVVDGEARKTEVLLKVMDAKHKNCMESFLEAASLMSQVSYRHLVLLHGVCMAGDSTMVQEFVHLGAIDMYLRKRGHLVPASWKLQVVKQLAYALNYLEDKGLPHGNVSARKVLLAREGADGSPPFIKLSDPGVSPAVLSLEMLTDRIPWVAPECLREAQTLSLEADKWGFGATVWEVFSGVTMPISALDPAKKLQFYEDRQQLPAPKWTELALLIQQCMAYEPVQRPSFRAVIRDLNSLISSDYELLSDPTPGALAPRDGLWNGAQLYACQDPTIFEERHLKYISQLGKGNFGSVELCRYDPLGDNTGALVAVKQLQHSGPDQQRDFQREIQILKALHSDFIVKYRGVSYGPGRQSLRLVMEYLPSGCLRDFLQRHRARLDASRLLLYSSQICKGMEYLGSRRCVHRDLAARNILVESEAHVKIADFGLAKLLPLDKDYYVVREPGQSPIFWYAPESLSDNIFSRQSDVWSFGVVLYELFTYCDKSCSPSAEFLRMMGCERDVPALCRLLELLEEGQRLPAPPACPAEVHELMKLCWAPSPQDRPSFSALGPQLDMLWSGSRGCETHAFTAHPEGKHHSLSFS
Human JAK1, sequence (P23458 whole entry): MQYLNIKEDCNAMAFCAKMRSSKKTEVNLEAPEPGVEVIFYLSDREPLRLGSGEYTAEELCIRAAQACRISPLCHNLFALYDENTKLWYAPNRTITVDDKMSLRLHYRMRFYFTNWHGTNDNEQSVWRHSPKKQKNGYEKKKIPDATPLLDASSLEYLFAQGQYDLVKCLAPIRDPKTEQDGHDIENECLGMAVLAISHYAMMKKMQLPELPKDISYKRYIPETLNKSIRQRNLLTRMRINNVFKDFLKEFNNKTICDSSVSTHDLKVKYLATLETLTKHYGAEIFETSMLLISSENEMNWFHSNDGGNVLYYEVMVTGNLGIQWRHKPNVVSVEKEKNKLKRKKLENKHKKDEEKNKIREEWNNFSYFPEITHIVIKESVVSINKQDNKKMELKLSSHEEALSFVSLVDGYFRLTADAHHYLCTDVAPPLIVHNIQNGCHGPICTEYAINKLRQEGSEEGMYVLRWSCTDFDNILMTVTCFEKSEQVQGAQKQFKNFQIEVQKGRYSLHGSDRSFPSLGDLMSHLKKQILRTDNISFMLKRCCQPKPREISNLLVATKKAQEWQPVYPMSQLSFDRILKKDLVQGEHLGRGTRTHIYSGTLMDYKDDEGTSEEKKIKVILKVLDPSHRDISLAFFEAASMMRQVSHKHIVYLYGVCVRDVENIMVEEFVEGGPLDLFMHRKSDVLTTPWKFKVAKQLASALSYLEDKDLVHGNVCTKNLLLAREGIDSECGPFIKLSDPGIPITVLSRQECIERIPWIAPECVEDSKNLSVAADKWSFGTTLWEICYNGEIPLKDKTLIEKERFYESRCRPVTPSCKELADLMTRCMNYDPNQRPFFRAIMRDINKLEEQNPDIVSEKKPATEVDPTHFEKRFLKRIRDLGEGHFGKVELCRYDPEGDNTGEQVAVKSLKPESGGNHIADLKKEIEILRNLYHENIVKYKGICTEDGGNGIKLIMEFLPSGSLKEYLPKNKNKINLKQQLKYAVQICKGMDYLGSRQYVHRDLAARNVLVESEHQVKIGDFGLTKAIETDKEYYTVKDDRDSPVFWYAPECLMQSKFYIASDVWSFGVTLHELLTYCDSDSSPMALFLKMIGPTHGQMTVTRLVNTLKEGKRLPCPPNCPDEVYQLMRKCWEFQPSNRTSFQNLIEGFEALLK
Human JAK2, sequence (O60674 whole entry): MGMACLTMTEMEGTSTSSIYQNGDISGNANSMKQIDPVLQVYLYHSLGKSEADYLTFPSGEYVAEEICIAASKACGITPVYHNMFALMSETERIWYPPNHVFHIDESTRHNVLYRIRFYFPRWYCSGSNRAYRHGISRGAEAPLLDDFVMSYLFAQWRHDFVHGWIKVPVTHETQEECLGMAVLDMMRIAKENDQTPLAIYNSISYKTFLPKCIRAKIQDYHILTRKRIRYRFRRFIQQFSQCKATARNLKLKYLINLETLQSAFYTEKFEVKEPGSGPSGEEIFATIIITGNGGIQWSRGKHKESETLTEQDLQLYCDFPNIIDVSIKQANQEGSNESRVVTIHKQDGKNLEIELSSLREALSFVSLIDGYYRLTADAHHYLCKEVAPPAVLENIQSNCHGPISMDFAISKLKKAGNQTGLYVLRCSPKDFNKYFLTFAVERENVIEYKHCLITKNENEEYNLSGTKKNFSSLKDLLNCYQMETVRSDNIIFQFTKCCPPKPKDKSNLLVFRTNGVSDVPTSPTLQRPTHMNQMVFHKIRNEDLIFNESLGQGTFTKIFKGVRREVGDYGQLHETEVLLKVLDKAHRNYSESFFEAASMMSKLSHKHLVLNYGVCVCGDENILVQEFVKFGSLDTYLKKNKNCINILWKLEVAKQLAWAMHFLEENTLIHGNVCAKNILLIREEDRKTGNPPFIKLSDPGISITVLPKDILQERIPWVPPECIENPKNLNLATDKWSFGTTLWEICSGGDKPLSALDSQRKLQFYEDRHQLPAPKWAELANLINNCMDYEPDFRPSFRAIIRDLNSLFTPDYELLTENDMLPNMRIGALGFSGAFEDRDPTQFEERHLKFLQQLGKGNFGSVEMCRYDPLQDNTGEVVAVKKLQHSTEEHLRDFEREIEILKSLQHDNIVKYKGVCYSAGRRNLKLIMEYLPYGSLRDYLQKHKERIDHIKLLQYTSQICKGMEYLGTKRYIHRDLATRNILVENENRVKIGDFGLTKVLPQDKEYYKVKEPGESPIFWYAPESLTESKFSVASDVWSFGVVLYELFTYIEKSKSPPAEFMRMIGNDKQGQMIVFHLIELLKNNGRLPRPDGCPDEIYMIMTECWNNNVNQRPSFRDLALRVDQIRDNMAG
Human TYK2, sequence (P29597 whole entry): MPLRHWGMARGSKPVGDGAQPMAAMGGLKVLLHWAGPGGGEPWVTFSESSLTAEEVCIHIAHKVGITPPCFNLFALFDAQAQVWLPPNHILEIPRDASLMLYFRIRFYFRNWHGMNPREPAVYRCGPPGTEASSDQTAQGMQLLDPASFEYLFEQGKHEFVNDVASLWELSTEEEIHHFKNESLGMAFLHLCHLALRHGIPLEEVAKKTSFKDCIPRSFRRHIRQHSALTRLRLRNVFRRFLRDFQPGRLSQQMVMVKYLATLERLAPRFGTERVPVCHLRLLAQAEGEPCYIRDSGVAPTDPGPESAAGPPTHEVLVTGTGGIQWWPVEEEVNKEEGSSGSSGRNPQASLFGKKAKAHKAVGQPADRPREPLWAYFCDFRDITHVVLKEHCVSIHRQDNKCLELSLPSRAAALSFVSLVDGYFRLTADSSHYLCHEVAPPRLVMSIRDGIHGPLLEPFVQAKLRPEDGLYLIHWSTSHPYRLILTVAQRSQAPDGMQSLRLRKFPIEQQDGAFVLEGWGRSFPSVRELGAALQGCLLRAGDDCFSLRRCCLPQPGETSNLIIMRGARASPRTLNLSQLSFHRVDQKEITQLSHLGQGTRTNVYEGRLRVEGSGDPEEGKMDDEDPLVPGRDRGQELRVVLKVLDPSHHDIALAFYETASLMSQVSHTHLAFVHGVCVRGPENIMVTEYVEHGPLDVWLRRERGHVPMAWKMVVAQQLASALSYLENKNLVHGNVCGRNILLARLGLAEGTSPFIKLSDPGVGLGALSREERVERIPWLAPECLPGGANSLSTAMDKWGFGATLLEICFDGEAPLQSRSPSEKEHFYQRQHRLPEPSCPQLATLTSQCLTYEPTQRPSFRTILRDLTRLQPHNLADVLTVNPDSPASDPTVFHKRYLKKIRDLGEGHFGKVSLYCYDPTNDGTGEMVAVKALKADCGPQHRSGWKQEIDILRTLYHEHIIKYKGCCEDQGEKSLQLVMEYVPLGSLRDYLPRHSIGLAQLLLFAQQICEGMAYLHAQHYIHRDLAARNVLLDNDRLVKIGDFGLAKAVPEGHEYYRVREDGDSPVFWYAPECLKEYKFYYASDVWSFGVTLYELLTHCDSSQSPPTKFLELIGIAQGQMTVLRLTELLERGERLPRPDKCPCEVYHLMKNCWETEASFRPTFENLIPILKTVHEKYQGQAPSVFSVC

Row | SMILES | inhibition at 1 µM (Human JAK2) [%] | inhibition at 1 µM (Human JAK1) [%] | inhibition at 1 µM (Human TYK2) [%] | inhibition at 1 µM (Human JAK3) [%]
1 | CN(c1ncnc2[nH]ccc12)[C@H]1CN(S(=O)(=O)c2cccc([N+](=O)[O-])c2)CC12CC2 [Example 44, (R)-N-methyl-N-(5-((3-nitrophenyl)sulfonyl)-5-azaspiro[2.4]heptan-7-yl)-7H-pyrrolo[2,3-d]pyrimidin-4-amine] | 96 | 100 | 98 | 96
2 | CN(c1ncnc2[nH]ccc12)[C@H]1CN(S(=O)(=O)c2ccc([N+](=O)[O-])cc2)CC12CC2 [Example 45, (R)-N-methyl-N-(5-((4-nitrophenyl)sulfonyl)-5-azaspiro[2.4]heptan-7-yl)-7H-pyrrolo[2,3-d]pyrimidin-4-amine] | 84 | 100 | 88 | 60
3 | Cc1cccc(S(=O)(=O)N2C[C@H](N(C)c3ncnc4[nH]ccc34)C3(CC3)C2)c1 [Example 46, (R)-N-methyl-N-(5-(m-tolylsulfonyl)-5-azaspiro[2.4]heptan-7-yl)-7H-pyrrolo[2,3-d]pyrimidin-4-amine] | 81 | 98 | 92 | 62
4 | COc1ccc(S(=O)(=O)N2C[C@H](N(C)c3ncnc4[nH]ccc34)C3(CC3)C2)cc1 [Example 47, (R)-N-(5-((4-methoxyphenyl)sulfonyl)-5-azaspiro[2.4]heptan-7-yl)-N-methyl-7H-pyrrolo[2,3-d]pyrimidin-4-amine] | 69 | 99 | 71 | 39
5 | CN(c1ncnc2[nH]ccc12)[C@H]1CN(S(=O)(=O)c2ccc(C(F)(F)F)cc2)CC12CC2 [Example 48, (R)-N-methyl-N-(5-((4-(trifluoromethyl)phenyl)sulfonyl)-5-azaspiro[2.4]heptan-7-yl)-7H-pyrrolo[2,3-d]pyrimidin-4-amine] | 36 | 98 | 66 | 28
6 | CN(c1ncnc2[nH]ccc12)[C@H]1CN(S(=O)(=O)c2ccc3ccccc3c2)CC12CC2 [Example 49, (R)-N-methyl-N-(5-(naphthalen-2-ylsulfonyI)-5-azaspiro[2.4]heptan-7-yl)-7H-pyrrolo[2,3-d]pyrimidin-4-amine] | 65 | 98 | 75 | 55
7 | CN(c1ncnc2[nH]ccc12)[C@H]1CN(S(=O)(=O)N2CCCCC2)CC12CC2 [Example 50, (R)-N-methyl-N-(5-(piperidin-1-ylsulfonyl)-5-azaspiro[2.4]heptan-7-yl)-7H-pyrrolo[2,3-d]pyrimidin-4-amine] | 56 | 98 | 81 | 60
8 | CN(c1ncnc2[nH]ccc12)[C@H]1CN(S(=O)(=O)N2CCOCC2)CC12CC2 [Example 51, (R)-N-methyl-N-(5-(morpholinosulfonyl)-5-azaspiro[2.4]heptan-7-yl)-7H-pyrrolo[2,3-d]pyrimidin-4-amine] | 60 | 97 | 69 | 49
9 | CCC(=O)N1CC(N(C)c2ncnc3[nH]ccc23)C2(CC2)C1 (stereo not drawn) [Example 52, 1-(7-(methyl(7H-pyrrolo[2,3-d]pyrimidin-4-yl)amino)-5-azaspiro[2.4]heptan-5-yl)propan-1-one] | -22 | 58 | 20 | 17
10 | COCC(=O)N1CC(N(C)c2ncnc3[nH]ccc23)C2(CC2)C1 (stereo not drawn) [Example 53, 2-methoxy-1-(7-(methyl(7H-pyrrolo[2,3-d]pyrimidin-4-yl)amino)-5-azaspiro[2.4]heptan-5-yl)ethan-1-one] | -18 | 76 | 7 | 3
11 | CN(c1ncnc2[nH]ccc12)C1CN(C(=O)CN=[N+]=[N-])CC12CC2 (stereo not drawn) [Example 54, 2-azido-1-(7-(methyl(7H-pyrrolo[2,3-d]pyrimidin-4-yl)amino)-5-azaspiro[2.4]heptan-5-yl)ethan-1-one] | 60 | 94 | 72 | 73
12 | CC(=O)NCC(=O)N1CC(N(C)c2ncnc3[nH]ccc23)C2(CC2)C1 (stereo not drawn) [Example 56, N-(2-(7-(methyl(7H-pyrrolo[2,3-d]pyrimidin-4-yl)amino)-5-azaspiro[2.4]heptan-5-yl)-2-oxoethyl)acetamide] | -37 | 9 | -10 | 9
13 | CNC(=O)CC(=O)N1CC(N(C)c2ncnc3[nH]ccc23)C2(CC2)C1 (stereo not drawn) [Example 57, N-methyl-3-(7-(methyl(7H-pyrrolo[2,3-d]pyrimidin-4-yl)amino)-5-azaspiro[2.4]heptan-5-yl)-3-oxopropanamide] | 7 | 55 | 11 | -9
14 | CN(c1ncnc2[nH]ccc12)C1CN(C(=O)CCN)CC12CC2 (stereo not drawn) [Example 58, 3-amino-1-(7-(methyl(7H-pyrrolo[2,3-d]pyrimidin-4-yl)amino)-5-azaspiro[2.4]heptan-5-yl)propan-1-one] | 2 | 34 | -4 | -9
15 | CN(c1ncnc2[nH]ccc12)C1CN(C(=O)Cn2ccnc2)CC12CC2 (stereo not drawn) [Example 59, 2-(1H-imidazol-1-yl)-1-(7-(methyl(7H-pyrrolo[2,3-d]pyrimidin-4-yl)amino)-5-azaspiro[2.4]heptan-5-yl)ethan-1-one] | -17 | 72 | -8 | 20
16 | CN(c1ncnc2[nH]ccc12)C1CN(C(=S)CC#N)CC12CC2 (stereo not drawn) [Example 60, 3-(7-(methyl(7H-pyrrolo[2,3-d]pyrimidin-4-yl)amino)-5-azaspiro[2.4]heptan-5-yl)-3-thioxopropanenitrile] | -3 | 96 | 0 | -14
17 | CC(C)COC(=O)N1CC(N(C)c2ncnc3[nH]ccc23)C2(CC2)C1 (stereo not drawn) [Example 61, isobutyl 7-(methyl(7H-pyrrolo[2,3-d]pyrimidin-4-yl)amino)-5-azaspiro[2.4]heptane-5-carboxylate] | -9 | 85 | 22 | 29
18 | CN(c1ncnc2[nH]ccc12)C1CN(S(=O)(=O)CCN)CC12CC2 (stereo not drawn) [Example 63, N-(5-((2-aminoethyl)sulfonyl)-5-azaspiro[2.4]heptan-7-yl)-N-methyl-7H-pyrrolo[2,3-d]pyrimidin-4-amine] | 43 | 91 | 29 | 7
19 | CCC(=O)N1C[C@@H](N(C)c2ncnc3[nH]ccc23)C2(CC2)C1 [Example 64, (S)-1-(7-(methyl(7H-pyrrolo[2,3-d]pyrimidin-4-yl)amino)-5-azaspiro[2.4]heptan-5-yl)propan-1-one] | -9 | 16 | 0 | -1
20 | CN(c1ncnc2[nH]ccc12)[C@@H]1CN(C(=O)CN=[N+]=[N-])CC12CC2 [Example 65, (S)-2-azido-1-(7-(methyl(7H-pyrrolo[2,3-d]pyrimidin-4-yl)amino)-5-azaspiro[2.4]heptan-5-yl)ethan-1-one] | 12 | 41 | 14 | -16
21 | CNC(=O)CC(=O)N1C[C@@H](N(C)c2ncnc3[nH]ccc23)C2(CC2)C1 [Example 67, (S)-N-methyl-3-(7-(methyl(7H-pyrrolo[2,3-d]pyrimidin-4-yl)amino)-5-azaspiro[2.4]heptan-5-yl)-3-oxopropanamide] | -7 | 5 | -4 | 0
